Data on 27 molecules can be found in patent US9771372B2, “Compounds useful as S100-inhibitors” (Active Biotech AB, priority 2014, dated 2017).

For the experiment, the target named is T1, interaction between biotinylated human S100A9 and human RAGE-Fc (Homo sapiens, UniProt P06702).
T1 construct: made in house; host or cells: E. coli BL21(DE3)/pET1120 (pLR757)
T1 sequence (P06702 1-114): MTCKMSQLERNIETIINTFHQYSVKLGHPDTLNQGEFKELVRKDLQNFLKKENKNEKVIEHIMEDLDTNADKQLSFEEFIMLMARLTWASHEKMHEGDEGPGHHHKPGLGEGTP
Description: AlphaScreen inhibition assay, Biot-hS100A9:hRAGE-Fc (S100A9-RAGE inhibition assay). It counts as binding. The settings on record: biot-hS100A9 and rhRAGE-Fc, Ca2+ and Zn2+ in buffer. The procedure, abridged: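 Biotinylated human S100A9, in HBS-P with CaCl2 and ZnCl2, preincubated 1 h at room temperature in the dark with compound (final DMSO ≤1.25%), then combined with rhRAGE-Fc on protein A Acceptor beads plus streptavidin Donor beads (20 μg/mL each). Protein levels batch-dependent; percent inhibition from AlphaScreen signal vs DMSO-only control.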
`O=C(NC1(C(F)(F)F)C(=O)Nc2nc3cc(Cl)c(Cl)cc3n21)C1CCCC1` (stereo not drawn) [Example 54, N-[10,11-dichloro-4-oxo-3-(trifluoromethyl)-2,5,7-triazatricyclo[6.4.0.0^2,6]dodeca-1(12),6,8,10-tetraen-3-yl]cyclopentanecarboxamide]: the IC50 worked out at 1600 nM. The figure for `COCCNc1cccc(C(=O)NC2(C(F)(F)F)C(=O)Nc3nc4cc(C)c(C)cc4n32)n1` (stereo not drawn) [Example 111, N-[10,11-dimethyl-4-oxo-3-(trifluoromethyl)-2,5,7-triazatricyclo[6.4.0.0^2,6]dodeca-1(8),6,9,11-tetraen-3-yl]-6-[(2-methoxyethyl)amino]pyridine-2-carboxamide] is 1620 nM. Then `Cc1cc2nc3n(c2cc1C)C(NC(=O)CCC1CCCC1)(C(F)(F)F)C(=O)N3` (stereo not drawn) [Example 27, 3-cyclopentyl-N-[10,11-dimethyl-4-oxo-3-(trifluoromethyl)-2,5,7-triazatricyclo[6.4.0.0^2,6]-dodeca-1(12),6,8,10-tetraen-3-yl]propanamide], with 400 nM. The figure for `Cc1cc2nc3n(c2cc1C)C(NC(=O)[C@@H](O)c1ccccc1)(C(F)(F)F)C(=O)N3` (single isomer, unassigned) [Example 146a] is 5390 nM; for `O=C(CCC1CCCC1)NC1(C(F)(F)F)C(=O)Nc2nc3c(-c4ccc(Cl)cc4)cccc3n21` (stereo not drawn) [Example 201, N-[9-(4-chlorophenyl)-4-oxo-3-(trifluoromethyl)-2,5,7-triazatricyclo[6.4.0.0^2,6]dodeca-1(12),6,8,10-tetraen-3-yl]-3-cyclopentylpropanamide] it is 850 nM; for `CC(=O)c1cccc2c1nc1n2C(NC(=O)CCC2CCCC2)(C(F)(F)F)C(=O)N1` (single isomer, unassigned) [Example 224b, N-[9-acetyl-4-oxo-3-(trifluoromethyl)-2,5,7-triazatricyclo[6.4.0.0^2,6]dodeca-1(12),6,8,10-tetraen-3-yl]-3-cyclopentylpropanamide] it is 10100 nM. Regarding `CS(=O)(=O)NC(=O)c1cccc2c1nc1n2C(NC(=O)CCC2CCCC2)(C(F)(F)F)C(=O)N1` (stereo not drawn) [Example 166, 3-(3-cyclopentylpropanamido)-N-methanesulfonyl-4-oxo-3-(trifluoromethyl)-2,5,7-triazatricyclo[6.4.0.0^2,6]dodeca-1(12),6,8,10-tetraene-9-carboxamide], the IC50 turned out to be 400 nM.

For the molecule `O=C(CCC1CCCC1)NC1(C(F)(F)F)C(=O)Nc2nc3c(Cl)c(Cl)ccc3n21` (stereo not drawn) [Example 83, 3-cyclopentyl-N-[9,10-dichloro-4-oxo-3-(trifluoromethyl)-2,5,7-triazatricyclo[6.4.0.0^2,6]-dodeca-1(12),6,8,10-tetraen-3-yl]propanamide], the IC50 is 600 nM. Then `O=C(CCC1CCCCN1)NC1(C(F)(F)F)C(=O)Nc2nc3cc(Cl)c(Cl)cc3n21` (stereo not drawn) [Example 69, N-[10,11-dichloro-4-oxo-3-(trifluoromethyl)-2,5,7-triazatricyclo[6.4.0.0^2,6]dodeca-1(12),6,8,10-tetraen-3-yl]-3-(piperidin-2-yl)propanamide], with 4900 nM; and `COC(=O)c1cccc(C(=O)NC2(C(F)(F)F)C(=O)Nc3nc4cc(Cl)c(Cl)cc4n32)n1` (stereo not drawn) [Example 95, methyl 6-{[10,11-dichloro-4-oxo-3-(trifluoromethyl)-2,5,7-triazatricyclo[6.4.0.0^2,6]dodeca-1(8),6,9,11-tetraen-3-yl]carbamoyl}pyridine-2-carboxylate], with 1080 nM.

Turning to `COc1ccc(-c2cccc3c2nc2n3C(NC(=O)CCC3CCCC3)(C(F)(F)F)C(=O)N2)cc1` (single isomer, unassigned) [Example 230a, 3-cyclopentyl-N-[9-(4-methoxyphenyl)-4-oxo-3-(trifluoromethyl)-2,5,7-triazatricyclo[6.4.0.0^2,6]dodeca-1(12),6,8,10-tetraen-3-yl]propanamide], the IC50 amounted to 260 nM. Then `Cc1cc2nc3n(c2cc1C)C(NC(=O)c1cccc(NC2CCCCC2)n1)(C(F)(F)F)C(=O)N3` (stereo not drawn) [Example 35, 6-(cyclohexylamino)-N-[10,11-dimethyl-4-oxo-3-(trifluoromethyl)-2,5,7-triazatricyclo-[6.4.0.0^2,6]dodeca-1(12),6,8,10-tetraen-3-yl]pyridine-2-carboxamide], with 2700 nM; and `COCCNc1cccc(C(=O)NC2(C(F)(F)F)C(=O)Nc3nc4cc(C)c(C)cc4n32)n1` (single isomer, unassigned) [Example 220b, N-[10,11-dimethyl-4-oxo-3-(trifluoromethyl)-2,5,7-triazatricyclo[6.4.0.0^2,6]dodeca-1(12),6,8,10-tetraen-3-yl]-6-[(2-methoxyethyl)amino]pyridine-2-carboxamide], with 4000 nM; and `O=C(NC1(C(F)(F)F)C(=O)Nc2nc3cc(Cl)c(Cl)cc3n21)C1CNC1` (stereo not drawn) [Example 47, N-[10,11-dichloro-4-oxo-3-(trifluoromethyl)-2,5,7-triazatricyclo[6.4.0.0^2,6]dodeca-1(12),6,8,10-tetraen-3-yl]azetidine-3-carboxamide], with 3900 nM. On to `Cc1cc2nc3n(c2cc1C)C(NC(=O)[C@H](C)OCC1CCCC1)(C(F)(F)F)C(=O)N3` (single isomer, unassigned) [Example 215b], for which the IC50 is 2660 nM.

Turning to `O=C(CCC1CCCC1)NC1(C(F)(F)F)C(=O)Nc2nc3c(Br)cc(Cl)cc3n21` (stereo not drawn) [Example 181, N-[9-bromo-11-chloro-4-oxo-3-(trifluoromethyl)-2,5,7-triazatricyclo[6.4.0.0^2,6]dodeca-1(12),6,8,10-tetraen-3-yl]-3-cyclopentylpropanamide], the IC50 was 1450 nM. With `CC(=O)c1cccc2c1nc1n2C(NC(=O)CCC2CCCC2)(C(F)(F)F)C(=O)N1` (single isomer, unassigned) [Example 224a, N-[9-acetyl-4-oxo-3-(trifluoromethyl)-2,5,7-triazatricyclo[6.4.0.0^2,6]dodeca-1(12),6,8,10-tetraen-3-yl]-3-cyclopentylpropanamide], the IC50 came to 880 nM. Then `O=C(NC1(C(F)(F)F)C(=O)Nc2nc3cc(Cl)c(Cl)cc3n21)c1cccc(OCC(F)(F)F)n1` (stereo not drawn) [Example 64, N-[10,11-dichloro-4-oxo-3-(trifluoromethyl)-2,5,7-triazatricyclo[6.4.0.0^2,6]dodeca-1(12),6,8,10-tetraen-3-yl]-6-(2,2,2-trifluoroethoxy)pyridine-2-carboxamide], with 1300 nM; and `O=C(CCC1CCCC1)NC1(C(F)(F)F)C(=O)Nc2nc3c(NS(=O)(=O)C4CC4)cccc3n21` (stereo not drawn) [Example 165, 3-cyclopentyl-N-[9-cyclopropanesulfonamido-4-oxo-3-(trifluoromethyl)-2,5,7-triazatricyclo[6.4.0.0^2,6]dodeca-1(12),6,8,10-tetraen-3-yl]propanamide], with 1430 nM; and `COCC(=O)N1CCC(C(=O)NC2(C(F)(F)F)C(=O)Nc3nc4cc(Cl)c(Cl)cc4n32)CC1` (stereo not drawn) [Example 44, N-[10,11-dichloro-4-oxo-3-(trifluoromethyl)-2,5,7-triazatricyclo[6.4.0.0^2,6]dodeca-1(12),6,8,10-tetraen-3-yl]-1-(2-methoxyacetyl)piperidine-4-carboxamide], with 4700 nM. Turning to `COc1ccc(-c2cccc3c2nc2n3C(NC(=O)CCC3CCCC3)(C(F)(F)F)C(=O)N2)cc1` (stereo not drawn) [Example 186, 3-cyclopentyl-N-[9-(4-methoxyphenyl)-4-oxo-3-(trifluoromethyl)-2,5,7-triazatricyclo[6.4.0.0^2,6]dodeca-1(12),6,8,10-tetraen-3-yl]propanamide], the IC50 stood at 580 nM. The figure for `CO[C@H](C(=O)NC1(C(F)(F)F)C(=O)Nc2nc3cc(C)c(C)cc3n21)c1ccccc1` (single isomer, unassigned) [Example 147b] is 3440 nM; for `O=C(CCN1CCOCC1)NC1(C(F)(F)F)C(=O)Nc2nc3cc(Cl)c(Cl)cc3n21` (stereo not drawn) [Example 61, N-[10,11-dichloro-4-oxo-3-(trifluoromethyl)-2,5,7-triazatricyclo[6.4.0.0^2,6]dodeca-1(12),6,8,10-tetraen-3-yl]-3-(morpholin-4-yl)propanamide] it is 2900 nM; for `O=C(CCC1CCCC1)NC1(C(F)(F)F)C(=O)Nc2nc3c(-c4ccc(Cl)c(Cl)c4)cccc3n21` (stereo not drawn) [Example 203, 3-cyclopentyl-N-[9-(3,4-dichlorophenyl)-4-oxo-3-(trifluoromethyl)-2,5,7-triazatricyclo[6.4.0.0^2,6]dodeca-1(12),6,8,10-tetraen-3-yl]propanamide] it is 1340 nM.

Consider `O=C(CCN1CC(F)(F)C1)NC1(C(F)(F)F)C(=O)Nc2nc3cc(Cl)c(Cl)cc3n21` (stereo not drawn) [Example 104, N-[10,11-dichloro-4-oxo-3-(trifluoromethyl)-2,5,7-triazatricyclo[6.4.0.0^2,6]dodeca-1(8),6,9,11-tetraen-3-yl]-3-(3,3-difluoroazetidin-1-yl)propanamide], for which the IC50 is 4020 nM. The figure for `CC(=O)c1cc(Cl)cc2c1nc1n2C(NC(=O)CCC2CCCC2)(C(F)(F)F)C(=O)N1` (stereo not drawn) [Example 182, N-[9-acetyl-11-chloro-4-oxo-3-(trifluoromethyl)-2,5,7-triazatricyclo[6.4.0.0^2,6]dodeca-1(12),6,8,10-tetraen-3-yl]-3-cyclopentylpropanamide] is 1120 nM; for `COCCNc1cccc(C(=O)NC2(C(F)(F)F)C(=O)Nc3nc4cc(C)c(C)cc4n32)n1` (single isomer, unassigned) [Example 220a, N-[10,11-dimethyl-4-oxo-3-(trifluoromethyl)-2,5,7-triazatricyclo[6.4.0.0^2,6]dodeca-1(12),6,8,10-tetraen-3-yl]-6-[(2-methoxyethyl)amino]pyridine-2-carboxamide] it is 1930 nM.
